Test in all cases: growth of human tumour cells (NCI), 48 h
Assay [1] relates to CCRF-CEM leukemia.
The subject of assay [2] is SNB-75 CNS.
For assay [3], the system named is COLO 205 colon.
Assay [4] deals with UACC-257 melanoma.
Assay [5] has as its system NCI/ADR-RES ovarian.
Assay [6] deals with SF-295 CNS.
Assay [7] concerns MCF7 breast.
Assay [8] deals with MALME-3M melanoma.
The test system of assay [9] is DU-145 prostate.
Assay [10] has as its system SK-MEL-2 melanoma.

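Dose response: 5 concentrations. Exposure: 48 h. Format: 96-well plates. Endpoint: linear interpolation; highest concentration if not reached. At the GI50, growth is halved. The concentration for full growth arrest is given as TGI.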

`CCc1c(O)c2c(c(O)c1C(C)=O)C(=O)c1c(cc(O)c(C(=O)O)c1C(=O)O)C2=O`: the TGI in assay [1], in assay [2], in assay [3], in [4], in assay [5] and in assay [6] was > 100 µM in each case. The TGI in assay [7], in assay [8], in assay [9] and in assay [10] was > 100 µM throughout.

For `COc1ccc(Cl)cc1NC(=O)c1cccc([N+](=O)[O-])c1O`, the TGI is > 100 µM in [1]; > 88.3 µM in assay [2]; 32 µM in [3]; > 67.9 µM in assay [4]; 64.4 µM in assay [5]; 55.3 µM in assay [6]. The TGI in assay [7] was 66.2 µM; in [8], 19.3 µM; in [9], > 100 µM; in assay [10], 24.8 µM.

Regarding `COc1cc(-c2cc(/C=C3\C(=O)Nc4ccccc43)[nH]n2)cc(OC)c1OC`, the GI50 in [1] was 2.28 µM; in assay [2], 1.18 µM; in assay [3], 2.47 µM; in [4] it was 2.37 µM; in [5] it was 2.33 µM; in assay [6], 2.84 µM. For the same compound, the GI50 is 2.77 µM in assay [7], 2.28 µM in [8], 4.35 µM in assay [9] and 2.27 µM in assay [10]. Further, the TGI in assay [1] is 6.96 µM; in assay [2], 10 µM; in assay [3] it was 7.02 µM; in assay [4] it was 6.56 µM; in assay [5], 6.67 µM; in [6], 11.6 µM. For the same compound, the TGI in assay [7] was 11 µM; in [8], 7.47 µM; in [9], 15.1 µM; in [10], 5.57 µM.

Consider `CCCCCCCCCCCCCC(=O)C(C)N` (stereo not given), for which the GI50 was 8.35 µM in assay [1]; 6.56 µM in [2]; 1.95 µM in assay [3]; 18.6 µM in assay [4]; 13.7 µM in [5]; 2.88 µM in assay [6]. For the same compound, the GI50 in [7] is 2.13 µM; in [8], 14 µM; in [9], 2.59 µM; in [10] it was 16 µM. Besides, the TGI in assay [1] came out at 27.2 µM; in [2], 20.7 µM; in assay [3], 3.87 µM; in [4], 34.1 µM; in [5] it was 29.4 µM; in assay [6], 10 µM. In addition, the TGI in assay [7] amounted to 5.77 µM; in assay [8], 29.3 µM; in [9], 7.35 µM; in assay [10] it was 31.2 µM.

For the compound `O=C(O)c1cscc1Cc1cccs1`, the TGI in assay [1], in assay [2], in assay [3], in [4], in [5] and in assay [6] was > 100 µM throughout. The TGI in assay [7], in assay [8], in assay [9] and in [10] was > 100 µM in each case.

For `C#Cc1cccc(Oc2ccc(NC(=O)CCl)cc2)c1`, the GI50 was 5.82 µM in assay [1]; > 82.5 µM in [2]; 21.2 µM in assay [3]; > 82.5 µM in assay [4]; > 82.5 µM in assay [5]; > 82.5 µM in [6]. The GI50 in [7] was 64.4 µM; in assay [8], 37.3 µM; in [9] it was > 82.5 µM; in assay [10], > 82.5 µM. For the same compound, the TGI in assay [1] is > 82.5 µM; in [2], > 82.5 µM; in assay [3], 73.3 µM; in [4], > 82.5 µM; in [5], > 82.5 µM; in [6], > 82.5 µM. In addition, the TGI in assay [7], in [8], in assay [9] and in assay [10] was > 82.5 µM each time.

Turning to `COc1ccc(-c2nnc(N3CCN(C(=O)CN4CCN(c5ccc(Cl)cc5)CC4)CC3)nc2-c2ccc(OC)cc2)cc1`, the GI50 in assay [1] was 48 µM; in assay [2], 19.5 µM; in assay [3], 16.9 µM; in [4], 59.4 µM; in assay [5], 20.7 µM; in assay [6], 49.4 µM. Further, the GI50 in assay [7] is 5.82 µM; in assay [8] it was 21.5 µM; in [9], > 100 µM; in [10], 35.5 µM. Further, the TGI was > 100 µM in assay [1]; 65.3 µM in assay [2]; > 100 µM in assay [3]; > 100 µM in assay [4]; > 100 µM in [5]; > 100 µM in [6]. In addition, the TGI in [7], in assay [8], in assay [9] and in assay [10] was > 100 µM each time.

These data come from PubChem BioAssay (NCI).
